From publication PMC12028158, “Synthesis and In Vitro Evaluation of the Anticancer Effect of Novel Phosphonium Vindoline Derivatives” (International Journal of Molecular Sciences, 2025)
Read-outs that look alike come from different tables or passages of the source.

What was measured:
Format in all cases: cell-based
RXF 393 = test: NCI60 five-dose screen; conditions: Homo sapiens, RXF 393
NCI-H322M = test: NCI60 one-dose screen; conditions: Homo sapiens, read-out: Growth percent
NCI/ADR-RES [1] = test: NCI60 five-dose screen; conditions: Homo sapiens
SN12C [2] = test: NCI60 five-dose screen; conditions: Homo sapiens
IGROV1 [3] = test: NCI60 one-dose screen; conditions: Homo sapiens
786-0 [4] = test: NCI60 one-dose screen; conditions: Homo sapiens
MDA-MB-435 = test: NCI60 five-dose screen; conditions: Homo sapiens
Leukemia panel = test: NCI60 five-dose screen, panel mean; conditions: Homo sapiens
EKVX = test: NCI60 five-dose screen; conditions: Homo sapiens
BT-549 [5] = test: NCI60 one-dose screen; conditions: Homo sapiens
NCI-H23 = test: NCI60 one-dose screen; conditions: Homo sapiens
CAKI-1 = test: NCI60 five-dose screen; conditions: Homo sapiens
SF-268 = test: NCI60 five-dose screen; conditions: Homo sapiens
UACC-62 [6] = test: NCI60 five-dose screen; conditions: Homo sapiens
HS 578T = test: NCI60 five-dose screen; conditions: Homo sapiens
NCI-H460 = test: NCI60 one-dose screen; conditions: Homo sapiens
HCT-116 = test: NCI60 five-dose screen; conditions: Homo sapiens
SK-MEL-28 = test: NCI60 five-dose screen; conditions: Homo sapiens
MDA-MB-231/ATCC = test: NCI60 one-dose screen; conditions: Homo sapiens, MDA-MB-231, read-out: Growth percent
OVCAR-8 = test: NCI60 one-dose screen; conditions: Homo sapiens
OVCAR-4 = test: NCI60 five-dose screen; conditions: Homo sapiens
SR = test: NCI60 one-dose screen; conditions: Homo sapiens, read-out: Growth percent
UACC-62 [7] = test: NCI60 one-dose screen; conditions: Homo sapiens
[8] = tested on: 60 human tumor cell lines (NCI60); test: NCI60 one-dose screen, overall mean; conditions: for activity at 10 µM: Homo sapiens, read-out: Mean growth percent
DU-145 = test: NCI60 five-dose screen; conditions: Homo sapiens
786-0 [9] = test: NCI60 five-dose screen; conditions: Homo sapiens
HCT-15 [10] = test: NCI60 one-dose screen; conditions: Homo sapiens
A498 [11] = test: NCI60 five-dose screen; conditions: Homo sapiens
HCT-15 [12] = test: NCI60 five-dose screen; conditions: Homo sapiens
MALME-3M = test: NCI60 one-dose screen; conditions: Homo sapiens, read-out: Growth percent
SN12C [13] = test: NCI60 one-dose screen; conditions: Homo sapiens, read-out: Growth percent
Breast Cancer panel = test: NCI60 five-dose screen, panel mean; conditions: Homo sapiens
NCI-H226 = test: NCI60 five-dose screen; conditions: Homo sapiens
SK-MEL-5 [14] = test: NCI60 one-dose screen; conditions: Homo sapiens
HOP-92 = test: NCI60 one-dose screen; conditions: Homo sapiens
A498 [15] = test: NCI60 one-dose screen; conditions: Homo sapiens
NCI/ADR-RES [16] = test: NCI60 one-dose screen; conditions: Homo sapiens, read-out: Growth percent
CNS Cancer panel = test: NCI60 five-dose screen, panel mean; conditions: Homo sapiens
MOLT-4 = test: NCI60 one-dose screen; conditions: Homo sapiens
BT-549 [17] = test: NCI60 five-dose screen; conditions: Homo sapiens
SK-MEL-5 [18] = test: NCI60 five-dose screen; conditions: Homo sapiens
KM12 = test: NCI60 one-dose screen; conditions: Homo sapiens
IGROV1 [19] = test: NCI60 five-dose screen; conditions: Homo sapiens, IGROV-1
SF-539 = test: NCI60 one-dose screen; conditions: Homo sapiens
M14 = test: NCI60 five-dose screen; conditions: Homo sapiens
K-562 = test: NCI60 five-dose screen; conditions: Homo sapiens, K562; K-562, Leukemia, five-dose; read-out: GI50
HL-60(TB) = test: NCI60 five-dose screen; conditions: Homo sapiens, read-out: GI50
[20] = mean over 60 cell lines, 10 μM, one-dose

Compound: CC[C@]12C=CCN3CC[C@@]4(c5ccc(OC)cc5N(C)[C@H]4[C@@](O)(C(=O)OC)[C@@H]1OC(=O)CCCC[P+](c1ccccc1)(c1ccccc1)c1ccccc1)[C@@H]32 [compound 4, reference compound]
- GI50 (RXF 393): 308 nM
- activity at 10 µM (NCI-H322M): 47%
- GI50 (NCI/ADR-RES [1]): > 100000 nM
- GI50 (SN12C [2]): 467 nM
- activity at 10 µM (IGROV1 [3]; IGROV-1, read-out: Growth percent): -36.4%
- activity at 10 µM (786-0 [4]; 786-0, read-out: Growth percent): 57.2%
- GI50 (MDA-MB-435; MDA-MB-435): 357 nM
- GI50 (Leukemia panel; read-out: GI50 Mean): 600 nM
- GI50 (EKVX): 586 nM
- activity at 10 µM (BT-549 [5]; BT-549, read-out: Growth percent): -1.04%
- activity at 10 µM (NCI-H23; NCI-H23, read-out: Growth percent): 6.4%
- GI50 (CAKI-1; CAKI-1): 2820 nM
- GI50 (SF-268; SF-268): 634 nM
- GI50 (UACC-62 [6]; UACC-62): 403 nM
- GI50 (HS 578T; Hs-578T): 1230 nM
- activity at 10 µM (NCI-H460; NCI-H460, read-out: Growth percent): 18.4%
- GI50 (HCT-116; HCT-116): 1060 nM
- GI50 (SK-MEL-28; SK-MEL-28): 532 nM
- activity at 10 µM (MDA-MB-231/ATCC): -2.41%
- activity at 10 µM (OVCAR-8; OVCAR-8, read-out: Growth percent): 18.6%
- GI50 (OVCAR-4; OVCAR-4): 326 nM
- activity at 10 µM (SR): 17.9%
- activity at 10 µM (UACC-62 [7]; UACC-62, read-out: Growth percent): -6.54%
- activity at 10 µM ([8]; 60 cell): 11.9%
- GI50 (DU-145; DU-145): 763 nM
- GI50 (786-0 [9]; 786-0): 2900 nM
- activity at 10 µM (HCT-15 [10]; HCT-15, read-out: Growth percent): 99.3%
- GI50 (A498 [11]; A498): 2840 nM
- GI50 (HCT-15 [12]; HCT-15): 18600 nM
- activity at 10 µM (MALME-3M; Malme-3M): -35.8%
- activity at 10 µM (SN12C [13]): 4.56%
- GI50 (Breast Cancer panel; read-out: GI50 Mean): 500 nM
- GI50 (NCI-H226; NCI-H226): 1930 nM
- activity at 10 µM (SK-MEL-5 [14]; SK-MEL-5, read-out: Growth percent): -72.9%
- activity at 10 µM (HOP-92; HOP-92, read-out: Growth percent): -30%
- activity at 10 µM (A498 [15]; A498, read-out: Growth percent): 52.2%
- activity at 10 µM (NCI/ADR-RES [16]): 91.6%
- GI50 (CNS Cancer panel; read-out: GI50 Mean): 940 nM
- activity at 10 µM (MOLT-4; MOLT-4, read-out: Growth percent): 5.66%
- GI50 (BT-549 [17]; BT-549): 583 nM
- GI50 (SK-MEL-5 [18]; SK-MEL-5): 1710 nM
- activity at 10 µM (KM12; KM12, read-out: Growth percent): 3.15%
- GI50 (IGROV1 [19]): 553 nM
- activity at 10 µM (SF-539; SF-539, read-out: Growth percent): 19%
- GI50 (M14; M14): 1790 nM

Compound: CC[C@]12C=CCN3CC[C@@]4(c5ccc(OC)cc5N(C)[C@H]4[C@@](O)(C(=O)OC)[C@@H]1OC(=O)CCC[P+](c1cc(C)c(OC)c(C)c1)(c1cc(C)c(OC)c(C)c1)c1cc(C)c(OC)c(C)c1)[C@@H]32 [9e]
- activity at 10 µM (NCI-H322M; 10 μM, one-dose): -98.1%
- GI50 (NCI/ADR-RES [1]; Ovarian Cancer, five-dose, read-out: GI50): 5110 nM
- GI50 (SN12C [2]; Renal Cancer, five-dose, read-out: GI50): 159 nM
- activity at 10 µM (IGROV1 [3]; IGROV-1, IGROV1, 10 μM, one-dose, read-out: Growth percent): -99%
- activity at 10 µM (786-0 [4]; 786-0, 10 μM, one-dose, read-out: Growth percent): -97.9%
- GI50 (MDA-MB-435; MDA-MB-435, Melanoma, five-dose, read-out: GI50): 231 nM
- GI50 (Leukemia panel; mean over Leukemia panel, read-out: Mean GI50): 110 nM
- activity at 10 µM (BT-549 [5]; BT-549, 10 μM, one-dose, read-out: Growth percent): -98%
- activity at 10 µM (NCI-H23; NCI-H23, 10 μM, one-dose, read-out: Growth percent): -98.1%
- GI50 (CAKI-1; CAKI-1, Renal Cancer, five-dose, read-out: GI50): 313 nM
- GI50 (SF-268; SF-268, CNS Cancer, five-dose, read-out: GI50): 231 nM
- GI50 (UACC-62 [6]; UACC-62, Melanoma, five-dose, read-out: GI50): 160 nM
- GI50 (HS 578T; HS 578T, Breast Cancer, five-dose, read-out: GI50): 185 nM
- activity at 10 µM (NCI-H460; NCI-H460, 10 μM, one-dose, read-out: Growth percent): -89.5%
- GI50 (HCT-116; HCT-116, Colon Cancer, five-dose, read-out: GI50): 223 nM
- GI50 (SK-MEL-28; SK-MEL-28, Melanoma, five-dose, read-out: GI50): 272 nM
- activity at 10 µM (OVCAR-8; OVCAR-8, 10 μM, one-dose, read-out: Growth percent): -95.5%
- GI50 (OVCAR-4; OVCAR-4, Ovarian Cancer, five-dose, read-out: GI50): 271 nM
- activity at 10 µM (UACC-62 [7]; UACC-62, 10 μM, one-dose, read-out: Growth percent): -97.7%
- activity at 10 µM [8, 20]: -97.1%
- Mean growth percent [8, 20]: −97.13%
- average reduction / average cell death ([8]; one-dose, 10 µM, average over cell lines): more than 70%
- GI50 (DU-145; DU-145, Prostate Cancer, five-dose, read-out: GI50): 300 nM
- GI50 (786-0 [9]; 786-0, Renal Cancer, five-dose, read-out: GI50): 239 nM
- activity at 10 µM (HCT-15 [10]; HCT-15, 10 μM, one-dose, read-out: Growth percent): -93.9%
- GI50 (A498 [11]; A498, Renal Cancer, five-dose, read-out: GI50): 314 nM
- GI50 (K-562): 195 nM
- GI50 (HCT-15 [12]; HCT-15, Colon Cancer, five-dose, read-out: GI50): 760 nM
- activity at 10 µM (MALME-3M; MALME-3M, 10 μM, one-dose): -98.4%
- activity at 10 µM (SN12C [13]; 10 μM, one-dose): -96.7%
- GI50 (Breast Cancer panel; mean over Breast Cancer panel, read-out: Mean GI50): 140 nM
- GI50 (NCI-H226; NCI-H226, Non-small Cell Lung Cancer, five-dose, read-out: GI50): 230 nM
- activity at 10 µM (SK-MEL-5 [14]; SK-MEL-5, 10 μM, one-dose, read-out: Growth percent): -97.5%
- activity at 10 µM (HOP-92; HOP-92, 10 μM, one-dose, read-out: Growth percent): -98.9%
- activity at 10 µM (A498 [15]; A498, 10 μM, one-dose, read-out: Growth percent): -98.9%
- activity at 10 µM (NCI/ADR-RES [16]; 10 μM, one-dose): -87.2%
- GI50 (CNS Cancer panel; mean over CNS Cancer panel, read-out: Mean GI50): 180 nM
- activity at 10 µM (MOLT-4; MOLT-4, 10 μM, one-dose, read-out: Growth percent): -98.3%
- GI50 (BT-549 [17]; BT-549, Breast Cancer, five-dose, read-out: GI50): 170 nM
- GI50 (SK-MEL-5 [18]; SK-MEL-5, Melanoma, five-dose, read-out: GI50): 138 nM
- activity at 10 µM (KM12; KM12, 10 μM, one-dose, read-out: Growth percent): -95%
- GI50 (IGROV1 [19]; IGROV1, Ovarian Cancer, five-dose, read-out: GI50): 193 nM
- activity at 10 µM (SF-539; SF-539, 10 μM, one-dose, read-out: Growth percent): -97.2%
- GI50 (M14; M14, Melanoma, five-dose, read-out: GI50): 299 nM
- GI50 (HL-60(TB); HL-60, HL-60(TB), Leukemia, five-dose): 39 nM
- GI50 (HL-60(TB); HL-60, leukemia HL-60(TB)): < 100 nM
